In patent US7521427B2 (Georgia Tech Research Corporation, priority 2004, dated 2009):
Like-named read-outs stand apart in the source and are kept apart here.

Columns and labels:
[1] = target: T1, calpain I (Homo sapiens, UniProt P07384); test: Calpain I irreversible inhibition assay; assay type: biochemical, porcine; conditions: 23° C.; for kinact/KI: read-out: kobs/[I] Calpain I
T1 construct: purchased Calbiochem (La Jolla, Calif.)
T1 sequence (P07384 1-714): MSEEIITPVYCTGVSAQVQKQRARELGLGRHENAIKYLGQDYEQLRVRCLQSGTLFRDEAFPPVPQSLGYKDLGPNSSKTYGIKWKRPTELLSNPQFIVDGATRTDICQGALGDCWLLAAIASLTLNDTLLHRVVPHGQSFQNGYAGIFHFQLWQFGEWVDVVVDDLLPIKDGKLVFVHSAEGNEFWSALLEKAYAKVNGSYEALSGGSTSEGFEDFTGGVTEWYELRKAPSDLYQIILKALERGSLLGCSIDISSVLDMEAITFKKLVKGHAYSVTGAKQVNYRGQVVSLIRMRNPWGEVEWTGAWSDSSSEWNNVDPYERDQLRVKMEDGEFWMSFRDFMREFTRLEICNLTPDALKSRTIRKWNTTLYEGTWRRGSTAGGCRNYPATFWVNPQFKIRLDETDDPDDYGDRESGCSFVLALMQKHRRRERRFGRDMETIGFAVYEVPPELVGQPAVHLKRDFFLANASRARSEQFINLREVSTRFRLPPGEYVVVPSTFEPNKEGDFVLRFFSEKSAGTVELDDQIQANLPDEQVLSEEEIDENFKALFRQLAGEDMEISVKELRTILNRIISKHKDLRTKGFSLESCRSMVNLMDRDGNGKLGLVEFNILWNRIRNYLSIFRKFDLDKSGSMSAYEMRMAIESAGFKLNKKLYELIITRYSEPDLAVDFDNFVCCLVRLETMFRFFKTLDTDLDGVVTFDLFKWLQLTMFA
T1 sequence (P04632 1-268 partner): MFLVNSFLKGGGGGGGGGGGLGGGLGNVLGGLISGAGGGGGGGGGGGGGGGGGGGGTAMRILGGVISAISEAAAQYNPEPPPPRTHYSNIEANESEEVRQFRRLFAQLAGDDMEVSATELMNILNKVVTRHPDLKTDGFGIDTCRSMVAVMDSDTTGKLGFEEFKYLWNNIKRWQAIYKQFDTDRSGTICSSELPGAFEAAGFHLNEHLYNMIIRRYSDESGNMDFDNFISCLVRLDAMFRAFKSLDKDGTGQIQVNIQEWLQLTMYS
Experimental: Calpain I was purchased from Calbiochem (La Jolla, Calif.) in a solution of 30% glycerol at a concentration of 6.96 μM and stored at −20° C. prior to use. The calpain I assay was conducted with 235 μL of a solution of 50 mM Hepes, […], at pH 7.5 (calpain I buffer), 6.5 μL of Suc-Leu-Tyr-AMC substrate solution in DMSO and 4.2 μL of the enzyme solution (6.96 μM) at 23° C. The enzymatic activity was monitored by following the change in fluorescence for 10 min at 465 nm. The k2 values were obtained by non-linear regression analysis and corrected for substrate (1+[S]/KM=1.274). All assays were run in duplicate and the standard deviation was determined.

[2] = target: T2, papain (Carica papaya, UniProt P00784); test: Papain incubation method inhibition assay; assay type: biochemical; conditions: for kinact/KI: pH 7.5, read-out: kobs/[I] Papain, incubation method; for kobs/[I] Papain: incubation method, pH 7.5
T2 construct: purchased
T2 sequence (P00784 134-345): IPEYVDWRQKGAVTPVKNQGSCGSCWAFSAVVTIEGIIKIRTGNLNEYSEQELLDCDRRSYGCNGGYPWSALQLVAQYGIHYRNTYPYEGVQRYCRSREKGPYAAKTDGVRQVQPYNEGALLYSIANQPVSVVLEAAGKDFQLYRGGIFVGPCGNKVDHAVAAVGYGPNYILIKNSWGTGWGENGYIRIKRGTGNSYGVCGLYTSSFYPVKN
Experimental: (§1) The incubation method was used to measure the irreversible inhibition of papain and cathepsin B. With cathepsin B, 30 μL of a stock inhibitor solution was added to 300 μL of a 0.1 M potassium phosphate buffer containing 1.25 mM EDTA, 0.01% Brij 35 at pH 6.0, followed by the addition of 30 μL of a freshly prepared cathepsin B solution (approximate concentration 6.98×10^−3 μg/μL) in the same potassium phosphate buffer containing 1 mM DTT (freshly prepared). Aliquots (50 μL) from the inhibition mixture were withdrawn at various time intervals and added to 200 μL of a 0.1 M potassium phosphate buffer containing 1.25 mM EDTA, 0.01% Brij 35 at pH 6.0, and the substrate Cbz-Arg-Arg-AMC (499 μM). The release of 7-amino-4-methylcoumarin was monitored (λex=360 nm, λem=465 nm) using a Tecan Spectra Fluor microplate reader. Pseudo first-order inactivation rate constants were obtained from plots of In vt/vo versus time.
The incubation method was also used for commercially available papain. The inhibition incubation buffer for papain was 50 mM Hepes buffer at pH 7.5, containing 2.5 mM DTT (dithiothreitol) and 2.5 mM EDTA. The assay used the substrate Cbz-Phe-Arg-pNA (53.7 μM) in the same buffer. The approximate concentration of papain added to the incubation buffer was 0.29 mg/mL. The release of p-nitroanilide was monitored at 405 nm with a Molecular Devices Thermomax microplate reader. All assays were run in duplicate.

[3] = target: T3, cathepsin B (Homo sapiens, UniProt P07858); test: Cathepsin B incubation method inhibition assay; assay type: biochemical; conditions: pH 6.0, 23° C., N.I. = no inhibition after 20 minutes of incubation
Experimental: as §1

[4] = target: T4, cathepsin L (Homo sapiens, UniProt P07711); test: Cathepsin L progress curve inhibition assay; assay type: biochemical; conditions: corrected for substrate; for kinact/KI: pH 5.5, progress curve method, read-out: kobs/[I] Cathepsin L
T4 construct: purchased Athens Research & Technology (Athens, Ga.)
Experimental: Cathepsin L was purchased from Athens Research & Technology (Athens, Ga.) in a 20 mM malonate buffer solution at pH 5.5 with 1 mM EDTA and 400 mM NaCl with a specific activity of 4.133 U/mg. The progress of cathepsin L inhibition was conducted with 243 μL of a solution of 0.25 M NaAc, 2 mM EDTA, 0.015% Brij, 5 mM DTT (dithiothreitol) at pH 5.5, 4 μL of Cbz-Phe-Arg-AMC substrate solution (16 mM) in DMSO (2% final concentration). Activity was monitored by following the change in fluorescence for 20 min at 465 nm. The kobs values were obtained by non-linear regression analysis and corrected for substrate (1+[S]/KM=1.274). All assays were run in duplicate and the standard deviation was determined.

[5] = target: purified recombinant cruzain (Trypanosoma cruzi, UniProt P25779); test: Cruzain IC50 determination; assay type: biochemical; conditions: for IC50: cruzain 2 nM, 5 minutes preincubation at room temperature, pH 5.5
Experimental: (§2) Inhibitors were screened for effectiveness against purified recombinant cruzain and rhodesain. Cruzain (2 nM) or rhodesain (3 nM) was incubated with 0.0001 to 1 μM inhibitor in 100 mM sodium acetate buffer, pH 5.5 and 5 mM DTT (buffer A), for 5 minutes at room temperature. Buffer A containing Cbz-Phe-Arg-AMC (Bachem, KM=1 μM, AMC=7-amino-4-methylcoumarin) was added to the enzyme and inhibitor to give 20 or 10 μM substrate concentration for cruzain and rhodesain, respectively, in 200 μL. The increase in fluorescence (excitation at 355 nm and emission at 460 nm) was followed with an automated microtiter plate spectrofluorimeter (Molecular Devices, Flex Station). Inhibitor stock solutions were prepared at 20 mM in DMSO and serial dilutions were made in DMSO (0.7% DMSO in assay). Controls were performed using enzyme alone, and enzyme with DMSO. IC50 values were determined graphically using inhibitor concentrations in the linear portion of a plot of enzyme activity versus log [I] (7 concentrations tested with at least 2 in the linear range).

[6] = target: purified recombinant rhodesain (Trypanosoma brucei rhodesiense, UniProt Q95PM0); test: Rhodesain IC50 determination; assay type: biochemical, Trypanosoma brucei rhodensiense; conditions: for IC50: rhodesain 3 nM, 5 minutes preincubation at room temperature, pH 5.5
Experimental: as §2

[7] = target: T3, cathepsin B; conditions: irreversible inhibition; cited from earlier work
[8] = target: T4, cathepsin L; conditions: irreversible inhibition; cited from earlier work
[9] = target: T5, cathepsin H (Homo sapiens, UniProt P09668); conditions: irreversible inhibition; cited from earlier work
T5 sequence (P09668 98-335): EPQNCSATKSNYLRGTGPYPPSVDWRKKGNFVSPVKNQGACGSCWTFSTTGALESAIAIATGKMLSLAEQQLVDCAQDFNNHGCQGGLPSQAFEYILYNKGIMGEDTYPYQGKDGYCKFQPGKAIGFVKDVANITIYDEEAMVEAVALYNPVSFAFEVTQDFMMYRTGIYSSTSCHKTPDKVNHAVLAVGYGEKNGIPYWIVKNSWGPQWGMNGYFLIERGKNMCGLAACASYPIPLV

[10] = pH 7.5, incubation method, plots of ln vt/v0 vs time
[11] = pH 7.5, progress curve method, corrected for substrate

Sequence of purified recombinant cruzain (P25779 123-467): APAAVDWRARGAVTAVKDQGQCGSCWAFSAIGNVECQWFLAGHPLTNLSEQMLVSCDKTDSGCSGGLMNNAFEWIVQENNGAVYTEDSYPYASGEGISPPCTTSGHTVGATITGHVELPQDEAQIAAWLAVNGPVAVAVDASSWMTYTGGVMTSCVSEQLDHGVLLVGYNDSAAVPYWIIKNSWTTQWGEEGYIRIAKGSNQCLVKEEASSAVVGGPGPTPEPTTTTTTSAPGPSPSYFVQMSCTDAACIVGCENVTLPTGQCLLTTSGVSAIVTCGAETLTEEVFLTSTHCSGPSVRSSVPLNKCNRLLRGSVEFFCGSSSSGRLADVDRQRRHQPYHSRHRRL
Sequence of purified recombinant rhodesain (Q95PM0 entry or part of it): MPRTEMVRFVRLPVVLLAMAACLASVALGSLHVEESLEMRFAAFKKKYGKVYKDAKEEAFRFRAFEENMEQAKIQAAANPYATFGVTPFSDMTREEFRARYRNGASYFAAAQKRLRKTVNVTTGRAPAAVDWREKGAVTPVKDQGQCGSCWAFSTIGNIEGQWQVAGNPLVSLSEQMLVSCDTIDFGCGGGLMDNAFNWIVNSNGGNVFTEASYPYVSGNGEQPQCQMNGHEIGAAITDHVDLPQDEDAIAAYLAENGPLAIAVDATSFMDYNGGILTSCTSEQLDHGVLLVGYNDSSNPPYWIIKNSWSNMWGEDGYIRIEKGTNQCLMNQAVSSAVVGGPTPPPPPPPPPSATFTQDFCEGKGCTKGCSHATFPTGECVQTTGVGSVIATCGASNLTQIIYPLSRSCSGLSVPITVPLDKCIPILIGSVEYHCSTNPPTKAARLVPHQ
T4 sequence (P07711 114-333): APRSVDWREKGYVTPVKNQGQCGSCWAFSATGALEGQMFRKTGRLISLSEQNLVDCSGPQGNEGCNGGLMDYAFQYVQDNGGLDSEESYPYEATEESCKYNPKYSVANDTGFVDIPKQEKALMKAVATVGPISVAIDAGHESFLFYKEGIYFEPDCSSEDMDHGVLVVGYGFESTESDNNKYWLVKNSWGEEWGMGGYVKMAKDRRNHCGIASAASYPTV

SMILES | kinact/KI [1, 10] [M⁻¹ s⁻¹] | kinact/KI [2] [M⁻¹ s⁻¹] | kobs/[I] Cathepsin B [3] | kinact/KI [4] [M⁻¹ s⁻¹] | IC50 ([5]; read-out: IC50 Cruzain) [nM] | IC50 ([6]; IC50 Rhodesain) [nM] | kobs/[I] Papain [2] [M⁻¹ s⁻¹] | kinact/KI [1, 11] [M⁻¹ s⁻¹] | kobs/[I] Calpain I ([1]; progress curve method, corrected for substrate, pH 7.5) [M⁻¹ s⁻¹] | kobs/[I] Cathepsin L ([4]; progress curve method, pH 5.5) [M⁻¹ s⁻¹] | kapp cathepsin B [7] [M⁻¹ s⁻¹] | kapp cathepsin L [8] [M⁻¹ s⁻¹] | inhibition of cathepsin H [9] | IC50 ([5]; IC50 Cruzain) [nM] | fold less potent with cruzain than the corresponding allyl sulfone Cbz-Leu-Phe-AS-Ph ([5]; ratio of IC50 values) | fold less potent with rhodesain than the corresponding allyl sulfone Cbz-Leu-Phe-AS-Ph ([6]; ratio of IC50 values) [fold] | IC50 ([6]; read-out: IC50 Rhodesain) [nM]
C[C@H](NC(=O)OCc1ccccc1)C(=O)NC(=CCS(=O)(=O)c1ccccc1)Cc1ccccc1 (mixture of isomers) [Cbz-Ala-Phe-AS-Ph, Phenyl-3-(N-carbobenzyloxyalanyl)amino-4-phenylbut-2-enyl Sulfone] | 3 | 9 | N.I.^f | 183 ± 10 | > 10000 | > 10000 |  |  |  |  |  |  |  |  |  |  | 
CC(C)[C@H](NC(=O)OCc1ccccc1)C(=O)NC(=CCS(=O)(=O)c1ccccc1)Cc1ccccc1 (mixture of isomers) [Cbz-Val-Phe-AS-Ph, Phenyl-3-(N-carbobenzyloxyvalyl)amino-4-phenylbut-2-enyl Sulfone] | 3 | 6 ± 1 | N.I. | 310 ± 52 | 6000 | 5000 |  |  |  |  |  |  |  |  |  |  | 
CC(C)C[C@H](NC(=O)OCc1ccccc1)C(=O)NC(=CCS(=O)(=O)c1ccccc1)Cc1ccccc1 (single isomer, unassigned) [Cbz-Leu-Phe-AS-Ph (Isomer A), Phenyl-3-(N-carbobenzyloxyleucyl)amino-4-phenylbut-2-enyl Sulfone] | 23 ± 4 |  | N.I. | 700 ± 43 | 60 | 40 | 49 |  |  |  |  |  |  |  |  |  | 
CC(C)C[C@H](NC(=O)OCc1ccccc1)C(=O)NC(=CCS(=O)(=O)c1ccccc1)Cc1ccccc1 (single isomer, unassigned) [Cbz-Leu-Phe-AS-Ph (Isomer B), Phenyl-3-(N-carbobenzyloxyleucyl)amino-4-phenylbut-2-enyl Sulfone] |  |  | N.I. |  | 300 | 180 | 15 ± 1 | 564 ± 32 | 564 | 1062 |  |  |  |  |  |  | 
CC(C)CCNC(=O)[C@H](CC(C)C)NC(=O)/C=C/C(=O)O (stereo in doubt) [fumarate derivative of E-64c, trans-HOOCCH═CH—CO-Leu-NH(CH2)2CH(CH3)2] |  |  |  |  |  |  |  |  |  |  | 625 | 2272 | inhibits |  |  |  | 
CC(C)C[C@H](NC(=O)OCc1ccccc1)C(=O)N[C@H](C=CS(=O)(=O)c1ccccc1)Cc1ccccc1 [reference compound] |  | 10 | N.I. | 219 ± 96 |  |  |  | 550 ± 2 |  |  |  |  |  | 2000 | over 30 fold | > 12 | 500
